What was measured:
human GLP-1R [1] = target: human GLP-1R (Homo sapiens, UniProt P43220, G168S); assay: CHO GLP-1R Clone H6—Assay 1: HTRF cAMP cell-based functional agonist assay (high GLP-1R density); settings: for EC50: read-out: Assay 1 EC50, CHO GLP-1R Clone H6, cAMP HTRF, geometric mean; for Emax: read-out: Assay 1 Emax (%), CHO GLP-1R Clone H6, relative to saturating concentration of full agonist GLP-1 (1 μM), arithmetic mean
human GLP-1R [2] = target: human GLP-1R (Homo sapiens (Human), UniProt P43220, L260F); assay: CHO GLP-1R Clone C6—Assay 2: HTRF cAMP cell-based functional agonist assay (low GLP-1R density); settings: for EC50: CHO GLP-1R Clone C6, cAMP HTRF, geometric mean; for Emax: CHO GLP-1R Clone C6, relative to saturating concentration of full agonist GLP-1 (1 μM), arithmetic mean, read-out: Assay 2 Emax (%)
human GLP-1R (Homo sapiens (Human), UniProt P43220, L260F), sequence (P43220 24-463 L260F): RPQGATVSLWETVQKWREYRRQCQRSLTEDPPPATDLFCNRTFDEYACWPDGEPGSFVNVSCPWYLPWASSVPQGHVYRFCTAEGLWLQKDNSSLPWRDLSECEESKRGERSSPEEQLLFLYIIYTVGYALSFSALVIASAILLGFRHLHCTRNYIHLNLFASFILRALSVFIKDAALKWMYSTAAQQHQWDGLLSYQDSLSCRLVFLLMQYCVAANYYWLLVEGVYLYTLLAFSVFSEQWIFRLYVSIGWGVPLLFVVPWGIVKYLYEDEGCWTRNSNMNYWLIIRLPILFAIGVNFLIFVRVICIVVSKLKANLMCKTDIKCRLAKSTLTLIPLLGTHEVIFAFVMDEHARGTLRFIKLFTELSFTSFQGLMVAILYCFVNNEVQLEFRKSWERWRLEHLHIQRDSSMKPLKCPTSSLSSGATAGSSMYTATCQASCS

human GLP-1R (Homo sapiens, UniProt P43220, G168S), sequence (P43220 24-463 G168S limits assumed): as the sequence (P43220 24-463 L260F) above, with G145S, F237L counted along it

SMILES	EC50 (human GLP-1R [1])	Emax (human GLP-1R [1])	EC50 (human GLP-1R [2])	Emax (human GLP-1R [2])
C[C@H]1CN(c2cccc(OCc3ccc(C#N)cc3F)n2)CCN1Cc1nc2ccc(C(=O)O)cc2n1C[C@H]1CCOC1 [Example 10A-59]	4.7 nM	71%	84 nM	83%
O=C(O)c1ccc2nc(CN3CCC(c4cccc(OCc5ccc(Cl)cc5F)n4)CC3)n([C@@H]3CCOC3)c2c1 [Example 10A-60]	31 nM	81%	460 nM	66%
N#Cc1ccc(COc2cccc(N3CCN(Cc4nc5ccc(C(=O)O)cc5n4Cc4cnco4)CC3)n2)c(F)c1 [Example 10A-61, 2-[(4-{6-[(4-cyano-2-fluorobenzyl)oxy]pyridin-2-yl}piperazin-1-yl)methyl]-1-(1,3-oxazol-5-ylmethyl)-1H-benzimidazole-6-carboxylic acid]	1.5 nM	74%	35 nM	89%
CCn1nncc1Cn1c(CN2CCN(c3cccc(OCc4ccc(C#N)cc4F)n3)CC2)nc2ccc(C(=O)O)cc21 [Example 10A-62, 2-[(4-{6-[(4-cyano-2-fluorobenzyl)oxy]pyridin-2-yl}piperazin-1-yl)methyl]-1-[(1-ethyl-1H-1,2,3-triazol-5-yl)methyl]-1H-benzimidazole-6-carboxylic acid]	2.9 nM	96%	28 nM	97%
CCn1cncc1Cn1c(CN2CCN(c3cccc(OCc4ccc(C#N)cc4F)n3)C[C@@H]2C)nc2ccc(C(=O)O)cc21 [Example 10A-63]	0.58 nM	86%	11 nM	110%
O=C(O)c1ccc2nc(CN3CCC(c4cccc(OCc5ccc(Cl)cc5F)n4)CC3)n(Cc3ccno3)c2c1 [Example 10A-64, 2-[(4-{6-[(4-chloro-2-fluorobenzyl)oxy]pyridin-2-yl}piperidin-1-yl)methyl]-1-(1,2-oxazol-5-ylmethyl)-1H-benzimidazole-6-carboxylic acid]	2 nM	82%	32 nM	79%
N#Cc1ccc(COc2cccc(C3CCN(Cc4nc5ccc(C(=O)O)cc5n4Cc4ccon4)CC3)n2)c(F)c1 [Example 10A-65, 2-[(4-{6-[(4-cyano-2-fluorobenzyl)oxy]pyridin-2-yl}piperidin-1-yl)methyl]-1-(1,2-oxazol-3-ylmethyl)-1H-benzimidazole-6-carboxylic acid]	1.6 nM	84%	35 nM	78%
CCn1cncc1Cn1c(CN2CCC(c3cccc(OCc4ccc(C#N)cc4F)n3)CC2)nc2ccc(C(=O)O)cc21 [Example 10A-66, 2-[(4-{6-[(4-cyano-2-fluorobenzyl)oxy]pyridin-2-yl}piperidin-1-yl)methyl]-1-[(1-ethyl-1H-imidazol-5-yl)methyl]-1H-benzimidazole-6-carboxylic acid]	0.39 nM	84%	3.4 nM	100%
CCn1cncc1Cn1c(CN2CCN(c3cccc(OCc4ccc(Cl)cc4F)n3)C[C@@H]2C)nc2ccc(C(=O)O)cc21 [Example 10A-67, 2-{[(2S)-4-{6-[(4-chloro-2-fluorobenzyl)oxy]pyridin-2-yl}-2-methylpiperazin-1-yl]methyl}-1-[(1-ethyl-1H-imidazol-5-yl)methyl]-1H-benzimidazole-6-carboxylic acid]	0.59 nM	83%	6.8 nM	93%
CCn1nncc1Cn1c(CN2CCC(c3cccc(OCc4ccc(C#N)cc4F)n3)CC2)nc2ccc(C(=O)O)cc21 [Example 10A-69, 2-[(4-{6-[(4-cyano-2-fluorobenzyl)oxy]pyridin-2-yl}piperidin-1-yl)methyl]-1-[(1-ethyl-1H-1,2,3-triazol-5-yl)methyl]-1H-benzimidazole-6-carboxylic acid]	2 nM	84%	20 nM	87%
O=C(O)c1ccc2nc(CN3CCC(c4cccc(OCc5ccc(Cl)cc5F)n4)CC3)n([C@H]3CCOC3)c2c1 [Example 10A-71]	190 nM	62%	5800 nM	85%
O=C(O)c1ccc2nc(CN3CCC(c4cccc(OCc5ccc(Cl)cc5F)n4)CC3)n(C[C@@H]3CCCO3)c2c1 [Example 10A-73, 2-[(4-{6-[(4-chloro-2-fluorobenzyl)oxy]pyridin-2-yl}piperidin-1-yl)methyl]-1-[(2S)-tetrahydrofuran-2-ylmethyl]-1H-benzimidazole-6-carboxylic acid]	8.6 nM	78%	88 nM	82%
O=C(O)c1ccc2nc(CN3CCN(c4cccc(OCc5ccc(Cl)cc5F)n4)CC3)n(C[C@@H]3CCO3)c2n1 [Example 10A-74, 2-[(4-{6-[(4-chloro-2-fluorobenzyl)oxy]pyridin-2-yl}piperazin-1-yl)methyl]-3-[(2S)-oxetan-2-ylmethyl]-3H-imidazo[4,5-b]pyridine-5-carboxylic acid]	0.9 nM	94%	9.7 nM	100%
CCn1cncc1Cn1c(CN2CCC(c3cccc(OCc4ccc(C#N)cc4F)n3)CC2)nc2ccc(C(=O)O)nc21 [Example 10A-75]	0.95 nM	95%	13 nM	91%
Cn1cncc1Cn1c(CN2CCC(c3cccc(OCc4ccc(C#N)cc4F)n3)CC2)nc2ccc(C(=O)O)nc21 [Example 10A-76]	2.9 nM	79%	51 nM	95%
N#Cc1ccc(COc2cccc(N3CCN(Cc4nc5ccc(C(=O)O)nc5n4C[C@@H]4CCO4)CC3)n2)c(F)c1 [Example 10A-77, 2-[(4-{6-[(4-cyano-2-fluorobenzyl)oxy]pyridin-2-yl}piperazin-1-yl)methyl]-3-[(2S)-oxetan-2-ylmethyl]-3H-imidazo[4,5-b]pyridine-5-carboxylic acid]	0.96 nM	100%	10 nM	120%
N#Cc1ccc(COc2cccc(C3CCN(Cc4nc5ccc(C(=O)O)cc5n4C[C@@H]4CCO4)CC3)n2)cc1 [Example 10A-78, 2-[(4-{6-[(4-cyanobenzyl)oxy]pyridin-2-yl}piperidin-1-yl)methyl]-1-[(2S)-oxetan-2-ylmethyl]-1H-benzimidazole-6-carboxylic acid]	1.6 nM	83%	28 nM	88%
CC1(Cn2c(CN3CCC(c4cccc(OCc5ccc(Cl)cc5F)n4)CC3)nc3ccc(C(=O)O)cc32)CCOC1 (centres unmarked) [Example 11A-14, 2-[(4-{6-[(4-chloro-2-fluorobenzyl)oxy]pyridin-2-yl}piperidin-1-yl)methyl]-1-[(3-methyltetrahydrofuran-3-yl)methyl]-1H-benzimidazole-6-carboxylic acid]	8.1 nM	64%	230 nM	77%
O=C(O)c1ccc2nc(CN3CCC(c4cccc(OCc5ccc(Cl)cc5F)n4)CC3)n(Cc3cn[nH]c3)c2c1 [Example 11A-15, 2-[(4-{6-[(4-chloro-2-fluorobenzyl)oxy]pyridin-2-yl}piperidin-1-yl)methyl]-1-(1H-pyrazol-4-ylmethyl)-1H-benzimidazole-6-carboxylic acid]	9.4 nM	69%	94 nM	92%
O=C(O)c1ccc2nc(CN3CCC(c4cccc(OCc5ccc(Cl)cc5F)n4)CC3)n(CC3CCC3)c2c1 [Example 11A-16, 2-[(4-{6-[(4-chloro-2-fluorobenzyl)oxy]pyridin-2-yl}piperidin-1-yl)methyl]-1-(cyclobutylmethyl)-1H-benzimidazole-6-carboxylic acid]	11 nM	71%	410 nM	75%
O=C(O)c1ccc2nc(CN3CCC(c4cccc(OCc5ccc(Cl)cc5F)n4)CC3)n(CCn3cncn3)c2c1 [Example 11A-17, 2-[(4-{6-[(4-chloro-2-fluorobenzyl)oxy]pyridin-2-yl}piperidin-1-yl)methyl]-1-[2-(1H-1,2,4-triazol-1-yl)ethyl]-1H-benzimidazole-6-carboxylic acid]	11 nM	65%	380 nM	96%
CCOC(C)Cn1c(CN2CCC(c3cccc(OCc4ccc(Cl)cc4F)n3)CC2)nc2ccc(C(=O)O)cc21 (centres unmarked) [Example 11A-18, 2-[(4-{6-[(4-chloro-2-fluorobenzyl)oxy]pyridin-2-yl}piperidin-1-yl)methyl]-1-(2-ethoxypropyl)-1H-benzimidazole-6-carboxylic acid]	14 nM	80%	270 nM	92%
COCCn1cnnc1Cn1c(CN2CCC(c3cccc(OCc4ccc(Cl)cc4F)n3)CC2)nc2ccc(C(=O)O)cc21 [Example 11A-19, 2-[(4-{6-[(4-chloro-2-fluorobenzyl)oxy]pyridin-2-yl}piperidin-1-yl)methyl]-1-{[4-(2-methoxyethyl)-4H-1,2,4-triazol-3-yl]methyl}-1H-benzimidazole-6-carboxylic acid]	15 nM	83%	230 nM	110%
O=C(O)c1ccc2nc(CN3CCC(c4cccc(OCc5ccc(Cl)cc5F)n4)CC3)n(CCN3CCOC3=O)c2c1 [Example 11A-20]	15 nM		270 nM	
Cn1nccc1Cn1c(CN2CCC(c3cccc(OCc4ccc(Cl)cc4F)n3)CC2)nc2ccc(C(=O)O)cc21 [Example 11A-21, 2-[(4-{6-[(4-chloro-2-fluorobenzyl)oxy]pyridin-2-yl}piperidin-1-yl)methyl]-1-[(1-methyl-1H-pyrazol-5-yl)methyl]-1H-benzimidazole-6-carboxylic acid]	18 nM	82%	270 nM	83%
